Results as given in ChEMBL document CHEMBL5120954, “Novel MRGX2 Antagonists for Treating Diseases” (ACS Med Chem Lett, 2022).

Molecular target: T1, Mas-related G-protein coupled receptor member X2 (Homo sapiens, UniProt Q96LB1)
T1 sequence (Q96LB1 whole entry): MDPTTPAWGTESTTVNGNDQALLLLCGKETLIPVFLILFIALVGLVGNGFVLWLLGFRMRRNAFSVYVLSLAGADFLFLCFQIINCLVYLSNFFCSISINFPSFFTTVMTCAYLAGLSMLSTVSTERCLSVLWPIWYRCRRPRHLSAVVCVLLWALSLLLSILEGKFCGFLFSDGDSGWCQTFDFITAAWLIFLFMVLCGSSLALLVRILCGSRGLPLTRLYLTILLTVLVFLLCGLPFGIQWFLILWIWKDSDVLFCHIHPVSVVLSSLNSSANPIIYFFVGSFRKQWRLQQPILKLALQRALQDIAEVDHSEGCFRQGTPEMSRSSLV
Assay: Antagonist activity at human MRGPRX2 expressed in HEK293 cells co-expressing mouse Galpha15 assessed as inhibition of Cortistatin-14 induced Ca2+ mobilization preincubated for 30 mins followed by Cortistatin-14 addition by FLIPRtetra-calcium mobilization assay
Format: functional, cell-based

IC50, ≤ 10 nM:
C[C@@H](C(=O)Nc1ccc(Oc2ccc(F)cc2F)cn1)N1CCC(F)(F)[C@@H](c2c[nH]c(=O)c(CS(C)(=O)=O)c2)C1
CC(C(=O)Nc1ccc(Oc2ccc(F)cc2)cn1)C1CCC(F)(F)C(c2ccc(=O)[nH]c2)C1 (stereo not given)
CC(C(=O)Nc1ccc(Oc2ccc(F)cc2)cn1)N1CCC(F)(F)C(c2c[nH]c(=O)c(CNCCO)c2)C1 (stereo not given)
CC(C(=O)Nc1ccc(Oc2ccccc2)cn1)N1CCC(F)(F)[C@@H](c2c[nH]c(=O)c(CN)c2)C1 (stereo not given in full)
CC(C(=O)Nc1ccc(Oc2cnc(F)cc2Cl)cn1)N1CCC(F)(F)[C@@H](c2ccc(=O)[nH]c2)C1 (stereo not given in full)
